Data taken from US6534502B2, “Substituted oximes and hydrazones as neurokinin antagonists” (Schering Corporation, priority 1998, dated 2003).

Assays:
[1] = biological target: NK1 receptor (Homo sapiens, UniProt P25103); test: neurokinin receptor binding assay, NK1
Text: (§1) The in vitro and in vivo activity of the compounds of formula I can be determined by various procedures known in the art, such as a test for their ability to inhibit the activity of the NK1 agonist Substance P, an isolated hamster trachea NK2 assay, a test of the effect of NK1 antagonists on Substance P-induced airway microvascular leakage, measurement of NK2 activity in vivo in guinea pigs, measurement of bronchoconstriction due to NKA, and neurokinin receptor binding assay(s). NK3 activity is determined by following a procedure similar to that described in the literature, e.g., Molecular Pharmacol., 48 (1995), p. 711-716.
(§2) % Inhibition of neurokinin agonist activity is the difference between the percent of maximum specific binding (MSB) and 100%. The percent of MSB is defined by the following equation, wherein “dpm” is disintegrations per minute: [formula]

[2] = biological target: T1, NK2 receptor (Homo sapiens, UniProt P21452); test: neurokinin receptor binding assay, NK2
T1 sequence (P21452 1-398): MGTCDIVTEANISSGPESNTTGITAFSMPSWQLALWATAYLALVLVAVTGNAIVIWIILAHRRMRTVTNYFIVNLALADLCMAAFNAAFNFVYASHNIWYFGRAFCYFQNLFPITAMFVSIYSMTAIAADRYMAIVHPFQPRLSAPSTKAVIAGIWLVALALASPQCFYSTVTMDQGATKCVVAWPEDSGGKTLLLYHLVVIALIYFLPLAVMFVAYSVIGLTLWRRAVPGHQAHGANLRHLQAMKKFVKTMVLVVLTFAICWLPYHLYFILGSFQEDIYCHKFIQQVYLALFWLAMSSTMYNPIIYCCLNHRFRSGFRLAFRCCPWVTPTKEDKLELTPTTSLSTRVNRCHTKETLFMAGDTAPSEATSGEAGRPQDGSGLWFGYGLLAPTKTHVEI
Text: as §1, with “assay(s).” for “assay(s). NK3 activity is determined by following a procedure similar to that described in the literature, e.g., Molecular Pharmacol., 48 (1995), p. 711-716.”
as §2

[3] = biological target: T2, NK3 receptor (Homo sapiens, UniProt P29371); test: neurokinin receptor binding assay, NK3
T2 sequence (P29371 1-465): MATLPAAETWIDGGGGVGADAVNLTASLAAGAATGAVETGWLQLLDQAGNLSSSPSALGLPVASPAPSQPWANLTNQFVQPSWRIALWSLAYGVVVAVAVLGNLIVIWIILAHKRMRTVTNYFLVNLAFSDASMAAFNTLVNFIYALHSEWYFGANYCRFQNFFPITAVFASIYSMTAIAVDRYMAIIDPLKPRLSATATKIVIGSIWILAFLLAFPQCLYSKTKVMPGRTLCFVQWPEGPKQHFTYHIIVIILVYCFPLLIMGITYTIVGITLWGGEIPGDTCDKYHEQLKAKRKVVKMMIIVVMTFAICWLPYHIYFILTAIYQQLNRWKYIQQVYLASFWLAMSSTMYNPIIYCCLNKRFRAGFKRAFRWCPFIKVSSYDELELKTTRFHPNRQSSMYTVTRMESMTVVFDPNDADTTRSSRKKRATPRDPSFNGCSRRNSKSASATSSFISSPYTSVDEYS
Text: as §1, §2

NK1 receptor, sequence (P25103 whole entry, species assumed): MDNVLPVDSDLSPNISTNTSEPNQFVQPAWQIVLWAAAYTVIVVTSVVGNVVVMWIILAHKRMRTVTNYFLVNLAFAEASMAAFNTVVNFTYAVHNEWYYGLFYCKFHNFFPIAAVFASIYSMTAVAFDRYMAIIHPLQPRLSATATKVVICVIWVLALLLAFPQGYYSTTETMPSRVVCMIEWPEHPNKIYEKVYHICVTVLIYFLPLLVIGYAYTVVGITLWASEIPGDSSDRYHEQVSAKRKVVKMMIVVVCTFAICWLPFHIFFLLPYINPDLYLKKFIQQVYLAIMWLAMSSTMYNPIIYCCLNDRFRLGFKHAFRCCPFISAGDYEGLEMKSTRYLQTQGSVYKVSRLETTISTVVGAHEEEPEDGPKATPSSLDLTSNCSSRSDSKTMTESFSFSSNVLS

Row | Ki [1] | Ki [2] | Ki [3] | SMILES
1 | 0.9 nM | 2.8 nM |  | CON=C(CN(C)C(=O)c1cc(Cl)cc(Cl)c1)C(CCN1CCC(N2C(=O)c3ccccc3C2C)CC1)c1ccc(Cl)c(Cl)c1 (stereo not shown) [Example 5B]
2 | 1 nM | 1 nM | 1.5 nM | CO/N=C(\CN(C)C(=O)c1cc(Cl)cc(Cl)c1)[C@H](CCN1CCC(N2CCCN(CC(=O)N3CCOCC3)C2=O)CC1)c1ccc(Cl)c(Cl)c1 [Example 6E]
3 | 0.9 nM | 0.5 nM | 0.3 nM | CON=C(CN(C)C(=O)c1cc(Cl)cc(Cl)c1)C(CCN1CCC(N2CCCN(C(C)(C)C(=O)O)C2=O)CC1)c1ccc(Cl)c(Cl)c1 (stereo not shown) [Example 6M]
4 |  |  | 2.1 nM | CO/N=C(\CN(C)C(=O)c1cc(Cl)cc(Cl)c1)[C@H](CCN1CCC(N2CCCN(Cc3nn[nH]n3)C2=O)CC1)c1ccc(Cl)c(Cl)c1 [Example 6S]
5 | 0.4 nM | 0.4 nM | 0.4 nM | CO/N=C(\CN(C)C(=O)c1cc(Cl)cc(Cl)c1)[C@H](CCN1CCC(N2CCCN(Cc3ccc[n+]([O-])c3)C2=O)CC1)c1ccc(Cl)c(Cl)c1 [Example 6Y]
6 | 1.8 nM | 0.4 nM | 3.8 nM | CO/N=C(\CN(C)C(=O)c1ccc2c(c1)OCO2)[C@H](CCN1CCC(N2CCCNC2=O)CC1)c1ccc(Cl)c(Cl)c1 [Example 7F]
7 | 1.1 nM | 0.7 nM | 1.2 nM | CO/N=C(\CN(C)C(=O)c1cc(Cl)cc(Cl)c1)C(CCN1CCC(N2CCNCC2=O)CC1)c1ccc(Cl)c(Cl)c1 (stereo not shown) [Example 8A]
8 | 2.9 nM | 28.9 nM | 34.6 nM | CO/N=C(\CN(C)C(=O)c1cc(Cl)cc(Cl)c1)C(CCN1CCC(N2CC(=O)N[C@@H](CC(=O)O)C2=O)CC1)c1ccc(Cl)c(Cl)c1 (stereo partly shown) [Example 10B]
9 | 0.8 nM | 1 nM | 1.9 nM | CO/N=C(\CN(C)C(=O)c1cc(Cl)cc(Cl)c1)[C@H](CCN1CCC(N2CC(=O)N[C@H](CC(N)=O)C2=O)CC1)c1ccc(Cl)c(Cl)c1 [Example 11A]
10 | 0.4 nM | 0.4 nM | 0.7 nM | CN(C/C(=N\OC/C(N)=N/O)C(CCN1CCC(N2CCCN(C/C(N)=N/O)C2=O)CC1)c1ccc(Cl)c(Cl)c1)C(=O)c1cc(Cl)cc(Cl)c1 (stereo not shown) [Example 16]

Row | SMILES | Ki [1] | Ki [2] | Ki [3]
11 | CO/N=C(\CN(C)C(=O)c1cc(Cl)cc(Cl)c1)[C@H](CCN1CCC(n2c(=O)[nH]c3ccccc32)CC1)c1ccc(Cl)c(Cl)c1 [Example 18A] |  |  | 9.8 nM
